“Also recorded” adds a separate entry of the source.
Experiments:
Type in all cases: in vivo, rat
Lewis rats [1] = test: Intraperitoneal glucose tolerance test (IPGTT) in normal Lewis rats after a single i.v. dose; details: for blood glucose excursion during IPGTT: Lewis rats 9-11 week old, 1.6 μg/gm body weight i.v. 60 min before IPGTT, vs vehicle
Method: Experimental animals. All animal studies were reviewed and approved by the Institutional Animal Care and Use Committee (IACUC) at Columbia University's Medical School. All experiments were performed in accordance with the IACUC approved procedures. Normal male Lewis rats (100-400 grams) were obtained from Taconic (Taconic Inc., Germantown, N.Y.) and were housed under conditions of controlled humidity (55±5%), temperature (23±1° C.), and lighting (light on: 06.00-18.00 hours) with free access to standard laboratory rat chow and water. Rats were handled daily to minimize nonspecific stress for more than 7 days before the experiments began. In most experiments, it was necessary to measure blood glucose in fasting animals. For these groups, food was removed at the beginning of the light cycle, 6 hours before glucose levels were measured. Diabetes mellitus was induced by intraperitoneal injection of streptozotocin (Sigma Chemical Co., St. Louis, Mo.) (25 to 50 mg/kg) to animals (100 to 150 grams) that had been fasted 4 hours to enhance the effectiveness of STZ treatment.
The STZ solution was prepared fresh by dissolving it in 0.1 M citrate buffer (pH 5.5) and terminally sterile filtered. Control Lewis age and weight matched rats received a 0.5 ml/kg citrate vehicle alone via intraperitoneal injection. Sixty minutes prior to intraperitoneal glucose tolerance testing (IPGTT), anesthesia of male Lewis rats was induced with isoflurane (3-4% in oxygen) and maintained with 1-2% isoflurane in oxygen. Anaesthetized rats were administered TBZ at the indicated dose by intravenous (i.v.) injection using the penile vein. TBZ was dissolved in neat sterile dimethylsulfoxide (DMSO) and diluted (always more than 10 fold) in sterile saline. Rats received injections of vehicle alone (10% DMSO in saline) or reserpine (in saline). Animals recovered fully before receiving IPGTT.
(§1) Blood glucose, insulin, glucagon and intraperitoneal glucose tolerance tests measurements. Blood samples were collected from a superficial blood vessel in the tails of the rats following 6 hours of fasting between 12:00 noon and 2:00 p.m. The fasting blood glucose (BG) levels of the rats were measured using an Accu-Check blood glucose monitoring system (Roche Diagnostics, Sommerville, N.J.). Intraperitoneal glucose tolerance tests (IPGTT) were performed in 6 hour fasting un-anaesthetized animals. Briefly, after baseline BG measurements, animals received an intraperitoneal (i.p.) injection of 1 gram glucose/kilogram body weight. To minimize stress during the procedure, rats were handled by the same operator during acclimatization and later during weighing and IPGTT. Blood samples (approximately 30 μl) were collected at baseline and then again 15, 30, 60, 90, and 120 minutes following i.p. glucose administration. BG concentrations were measured immediately on these samples and the remainder processed.
Plasma was immediately separated by centrifugation at 3000×g for 15 minutes and then stored at −20° C. until analysis. Insulin and glucagon concentration measurements in rat plasma were performed by ELISA as per the manufacturer's instructions using kits from Linco Research Inc. (St. Charles, Mo.) and Alpco Diagnostics (Salem, N.H.), respectively. To validate the test, saline injections were performed by the same method. […] The area under the IPGTT glucose concentration×time curve (AUCIPGTT) was calculated by the trapezoidal rule. The area under the insulin or glucagon concentration×time curve (AUC INS or AUC GCG) was calculated in a similar manner.

[2] = test system: dopamine content of brain and pancreas tissue; test: Dopamine content of brain and pancreas extracts by ELISA after i.v. TBZ
Method: Dopamine measurements. Anaesthetized rats received an intravenous injection of TBZ and were sacrificed one hour later. Euthanasia was performed by exsanguination of the anesthetized animal. Brain and pancreas were harvested as quickly as possible and frozen at −80° C. until use. Frozen tissue was pulverized in a liquid nitrogen cooled mortar and extracted in 0.01 N HCl. The tissue extract was centrifuged at 10,000×g at 4° C. to remove debris and the total protein was estimated by reading the absorbance at 280 nm. The concentration of dopamine in the extract was estimated using an ELISA kit from Rocky Mountain Diagnostics (Colorado Springs, Colo.) per the manufacturer's instructions and normalized to the extract protein concentration.

Lewis rats [3] = test: IPGTT after 2 mg/kg i.v. of VMAT2 ligands (FIG. 10); details: 2 mg/kg body weight i.v.; for blood glucose excursion during IPGTT: vs vehicle (DMSO)
Method: Experimental animals. All animal studies were conducted as described in Example 1.
Anaesthetized rats were administered TBZ, THB, butamol, reserpine, emetine, or Compound 6 at a dose of approximately 2-3 mg/kg body weight by intravenous (i.v.) injection using the penile vein. TBZ, THB, butamol, reserpine, emetine, and Compound 6 were each separately dissolved in neat sterile dimethylsulfoxide (DMSO) and diluted (always more than 10 fold) in sterile saline. Rats received injections of vehicle alone (10% DMSO in saline) or reserpine (in saline). Animals recovered fully before receiving IPGTT.
as §1, with “30, 45,” for “30,”, “glucose.” for “glucose administration.”

Lewis rats [4] = test: IPGTT with TBZ, emetine and Compound 6 (FIG. 12); details: single dose 2-3 mg/kg body weight
Method: Experimental animals. All animal studies were conducted as described in Example 1. […] Rats received injections of vehicle alone (10% DMSO in saline) or reserpine (in saline). Animals recovered fully before receiving IPGTT. Blood glucose, insulin, glucagon and intraperitoneal glucose tolerance tests measurements. […] The fasting blood glucose (BG) levels of the rats were measured using an Accu-Check blood glucose monitoring system (Roche Diagnostics, Sommerville, N.J.). Intraperitoneal glucose tolerance tests (IPGTT) were performed in 6 hour fasting un-anaesthetized animals. Briefly, after baseline BG measurements, animals received an intraperitoneal (i.p.) injection of 1 gram glucose/kilogram body weight. To minimize stress during the procedure, rats were handled by the same operator during acclimatization and later during weighing and IPGTT. Blood samples (approximately 30 μl) were collected at baseline and then again 15, 30, 45, 60, 90, and 120 minutes following i.p. glucose. BG concentrations were measured immediately on these samples and the remainder processed.

[5] = 1.6 μg/gm body weight i.v., one hour later (FIG. 3)
[6] = one hour after injection of 10 μg/gm body weight

SMILES: COc1cc2c(cc1OC)C1CC(=O)C(CC(C)C)CN1CC2 (centres unmarked) [TBZ, tetrabenazine]
- reduction of the glucose excursion (areas under the curve during IPGTT) (Lewis rats [1]; 1.6 μg/gbm (gram body weight) i.v.): 40-50%
- AUC IPGTT, controls vs TBZ treated animals (Lewis rats [1]; 1.6 μg/gm body weight, n=4 experiments, p<0.05): significantly higher
- rise in glucose concentration around 15 minutes after injection (Lewis rats [1]; IPGTT following TBZ administration): blunted
- blood glucose excursion during IPGTT (Lewis rats [1]): reduces the blood glucose excursion
- blood glucose excursion during IPGTT (Lewis rats [1]; listed as tetrabenazine): significant change in the size and shape of the glucose disposition curve
- baseline fasting glucose concentration (Lewis rats [1]; following TBZ administration, before glucose challenge, data not shown): no reproducible differences
- dose response of AUC IPGTT (normalized to baseline) (Lewis rats [1]; varying doses of TBZ before IPGTT): reduces the blood glucose excursion in a dose dependent manner; also recorded: complex dose response effect
- dopamine content of brain tissue [2, 5]: reduces the dopamine content
- dopamine content of pancreas tissue [2, 5]: reduces the dopamine content
- dopamine content of brain [2, 6]: significantly depleted
- dopamine content of pancreas [2, 6]: significantly depleted
- blood glucose levels during IPGTT (Lewis rats [3]; around sixty minutes following glucose challenge): returned to control or near normal levels
- area under the curve in the IPGTT (Lewis rats [3]; following glucose challenge): smaller area under the curve
- blood glucose excursion during IPGTT (Lewis rats [3]): reduce the blood glucose excursion
- blood glucose excursion during IPGTT (Lewis rats [3]; listed as Tetrabenazine): reduced the blood glucose excursion
- blood glucose excursion during IPGTT (Lewis rats [4]): consistently reduced the blood glucose excursion
- area under the curve from IPGTT (Lewis rats [4]; separate experiments): depress the area under the curve; also recorded: consistently suppressed the area under the curve
